Values after ≈ are worked out from the molar mass of the structure shown. Read-outs that look alike come from different tables or passages of the source.
Experiments:
[1] = test system: Methicillin Resistant S. aureus Sa2 (MRSA); assay: animal or person; assay type: in vivo; conditions: lung
[2] = test system: S. aureus Sa2 clinical strain NCIMB 41953, MRSA; assay: microbe, parasite or virus in culture; assay type: cell-based; conditions: Staphylococcus aureus, read-out: MIC Sa2
[3] = test system: S. aureus Sa1 ATCC 13709; assay: microbe, parasite or virus in culture; assay type: cell-based; conditions: Staphylococcus aureus, ATCC13709, read-out: MIC Sa1
[4] = target: DNA Polymerase IIIα (DnaE) from Staphylococcus aureus (Staphylococcus aureus, UniProt Q6GG04); assay: biochemical
Sequence of DNA Polymerase IIIα (DnaE) from Staphylococcus aureus (Q6GG04 1-1022): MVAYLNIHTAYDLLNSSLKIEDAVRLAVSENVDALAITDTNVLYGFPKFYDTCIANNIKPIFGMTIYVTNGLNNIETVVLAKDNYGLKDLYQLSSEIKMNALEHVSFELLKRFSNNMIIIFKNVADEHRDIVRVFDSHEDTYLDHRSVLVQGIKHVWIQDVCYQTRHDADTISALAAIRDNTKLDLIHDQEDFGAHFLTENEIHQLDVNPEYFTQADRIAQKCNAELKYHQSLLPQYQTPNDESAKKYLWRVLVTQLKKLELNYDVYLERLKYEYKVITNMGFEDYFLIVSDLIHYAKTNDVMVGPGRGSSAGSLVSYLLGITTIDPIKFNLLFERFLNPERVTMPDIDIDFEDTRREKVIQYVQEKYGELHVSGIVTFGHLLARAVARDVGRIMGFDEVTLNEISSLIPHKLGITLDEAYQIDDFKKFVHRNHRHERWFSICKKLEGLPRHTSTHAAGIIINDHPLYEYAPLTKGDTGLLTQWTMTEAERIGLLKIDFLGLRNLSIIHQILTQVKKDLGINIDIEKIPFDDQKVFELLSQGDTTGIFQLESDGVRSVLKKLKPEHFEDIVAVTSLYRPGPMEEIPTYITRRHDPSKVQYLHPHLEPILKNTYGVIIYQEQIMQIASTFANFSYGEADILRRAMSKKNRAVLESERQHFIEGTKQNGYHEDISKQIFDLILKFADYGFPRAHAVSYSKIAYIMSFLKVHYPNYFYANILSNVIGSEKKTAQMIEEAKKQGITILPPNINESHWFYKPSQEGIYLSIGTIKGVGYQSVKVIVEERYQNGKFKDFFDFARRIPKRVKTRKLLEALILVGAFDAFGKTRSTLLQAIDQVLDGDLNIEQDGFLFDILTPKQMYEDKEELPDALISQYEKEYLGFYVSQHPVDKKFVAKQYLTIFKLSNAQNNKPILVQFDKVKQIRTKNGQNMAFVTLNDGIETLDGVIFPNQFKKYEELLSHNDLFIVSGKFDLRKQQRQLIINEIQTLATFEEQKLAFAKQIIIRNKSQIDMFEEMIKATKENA

[5] = test system: H. influenza Hi106 ATCC 51907; assay: organism not typed; assay type: cell-based; conditions: read-out: MIC Hi106
[6] = target: DNA III Polymerase E (Escherichia coli, UniProt P10443); assay: In vitro activity against DNA III Polymerase E, E. coli; assay type: biochemical; conditions: DNA polymerase III, E. coli; read-out: IC50 semiquantitative scoring, E. coli
Sequence of DNA III Polymerase E (P10443 whole entry): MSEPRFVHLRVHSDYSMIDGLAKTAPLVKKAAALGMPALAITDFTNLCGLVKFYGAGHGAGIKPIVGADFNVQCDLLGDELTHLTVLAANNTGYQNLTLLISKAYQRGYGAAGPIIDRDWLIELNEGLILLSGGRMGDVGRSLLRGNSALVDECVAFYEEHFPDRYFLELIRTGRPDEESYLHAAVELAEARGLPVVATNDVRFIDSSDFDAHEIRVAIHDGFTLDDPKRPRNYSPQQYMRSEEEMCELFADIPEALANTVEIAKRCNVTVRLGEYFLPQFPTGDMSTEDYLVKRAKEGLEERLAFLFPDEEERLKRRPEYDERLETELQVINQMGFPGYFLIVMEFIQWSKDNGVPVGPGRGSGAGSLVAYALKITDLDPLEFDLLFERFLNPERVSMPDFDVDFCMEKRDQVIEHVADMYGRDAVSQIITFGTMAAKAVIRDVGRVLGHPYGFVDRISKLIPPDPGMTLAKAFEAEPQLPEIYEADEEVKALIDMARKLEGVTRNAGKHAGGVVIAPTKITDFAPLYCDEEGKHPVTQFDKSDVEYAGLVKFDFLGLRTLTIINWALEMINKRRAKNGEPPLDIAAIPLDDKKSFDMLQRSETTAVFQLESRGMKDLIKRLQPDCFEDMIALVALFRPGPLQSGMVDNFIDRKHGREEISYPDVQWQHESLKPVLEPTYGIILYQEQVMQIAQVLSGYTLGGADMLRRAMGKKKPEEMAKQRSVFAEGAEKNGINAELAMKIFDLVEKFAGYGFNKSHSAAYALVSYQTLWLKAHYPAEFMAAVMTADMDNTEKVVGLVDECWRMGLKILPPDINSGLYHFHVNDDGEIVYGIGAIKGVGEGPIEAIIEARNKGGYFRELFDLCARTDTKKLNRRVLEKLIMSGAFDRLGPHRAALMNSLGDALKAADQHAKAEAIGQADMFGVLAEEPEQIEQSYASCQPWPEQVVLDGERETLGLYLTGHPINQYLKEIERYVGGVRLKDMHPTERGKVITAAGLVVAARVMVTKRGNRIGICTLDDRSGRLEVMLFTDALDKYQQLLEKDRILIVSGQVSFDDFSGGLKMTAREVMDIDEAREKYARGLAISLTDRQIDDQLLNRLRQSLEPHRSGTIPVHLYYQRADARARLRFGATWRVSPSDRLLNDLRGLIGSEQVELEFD
How it was run: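 Recombinant enzyme (0.47 μg/mL diluted stock) in 20 mM Tris pH7.5, 8 mM DTT, 10 mM MgOAc, 0.05% CHAPS met compound series from 100 μM top, 1/5 steps. Activated calf thymus DNA, dNTPs and [α-33P]-dTTP substrate were added, and incubation ran 120 min at 30° C. IC50 came from filter-captured incorporated radioactivity versus controls.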

[7] = test system: Methicillin Resistant S. aureus (MRSA); assay: Neutropenic mouse thigh infection model; conditions: Thigh Sa
[8] = test system: H. influenza Hi47 clinical strain, Ampicillin Resistant; assay: organism not typed; assay type: cell-based; conditions: read-out: MIC Hi47
[9] = test system: E. coli Ec1 ATCC 25922; assay: Antibacterial activity assay (MIC), E. coli Ec1; assay type: cell-based; conditions: Escherichia coli, ATCC25922, read-out: MIC Ec1
[10] = test system: H. influenza Hi10 clinical strain; assay: organism not typed; assay type: cell-based; conditions: read-out: MIC Hi10
[11] = test system: H. influenza Hi3 ATCC 31517; assay: organism not typed; assay type: cell-based; conditions: read-out: MIC Hi3
[12] = test system: S. aureus Sa26 ATCC 25923; assay: Antibacterial activity assay (MIC), S. aureus Sa26; assay type: cell-based; conditions: Staphylococcus aureus
[13] = test system: S. aureus Sa4 NCTC 6571; assay: Antibacterial activity assay (MIC), S. aureus Sa4; assay type: cell-based; conditions: Staphylococcus aureus, NCTC6571, read-out: MIC Sa4
[14] = test system: Methicillin Resistant S. aureus Sa2 (MRSA); assay type: in vivo; conditions: Groin Sa, Study 2; 50 mg/kg PO BID; sample time 31 h post infection
[15] = test system: E. coli Ec113 efflux pump KO; assay: microbe, parasite or virus in culture; assay type: cell-based; conditions: Escherichia coli, read-out: MIC Ec113 efflux pump KO
[16] = test system: E. coli Ec50 efflux pump KO; assay: microbe, parasite or virus in culture; assay type: cell-based; conditions: Escherichia coli, read-out: MIC Ec50 efflux pump KO
[17] = Study 2, 50 mg/kg IP BID, sample time 7 h PI
[18] = Study 4, 5 mg/kg IP BID, sample time 24 h PI
[19] = Study 4, 15 mg/kg IP BID, sample time 24 h PI
[20] = Study 4, 50 mg/kg IP BID, sample time 24 h PI
[21] = Study 5, 5 mg/kg IV BID, sample time 24 h PI
[22] = Study 6, 25 mg/kg IV BID, sample time 24 h PI
[23] = Study 7, 15 mg/kg PO BID, sample time 24 h PI
[24] = Study 7, 50 mg/kg PO BID, sample time 24 h PI
[25] = Study 8, 50 mg/kg PO QD, sample time 48 h PI

Work on `COC[C@@H]1[C@@H](O)[C@@H]2[C@H]3C=C[C@@H]4[C@@H](COC)C(=O)O[C@H]([C@H](O)COC)[C@H](C)/C=C(\C)[C@@]24O[C@H]3[C@@H]1OC(=O)c1ccc[nH]1` [Compound 2, 8-O-1H-pyrrole-2′-carbonylbranimycin] yielded a log reduction at 50 mg/kg ([1]; Staphylococcus aureus, MRSA, in Mus musculus, po, 24 h, read-out: Log reduction vs. untreated, Study 1, 50 mg/kg PO BID, sample 24 h post infection) of 3.36, a log reduction at 15 mg/kg ([1]; Staphylococcus aureus, MRSA, in Mus musculus, po, 24 h, read-out: Log reduction vs. untreated, Study 2, 15 mg/kg PO BID, sample 24 h post infection) of 3.91 and a log reduction at 50 mg/kg ([1]; Staphylococcus aureus, MRSA, in Mus musculus, po, 24 h, read-out: Log reduction vs. untreated, Study 2, 50 mg/kg PO BID, sample 24 h post infection) of 2.99. It also gave a log reduction at 6.25 mg/kg ([1]; Staphylococcus aureus, MRSA, in Mus musculus, po, 24 h, read-out: Log reduction vs. untreated, Study 4, 6.25 mg/kg PO BID, sample 24 h post infection) of 0.04, a log reduction at 12.5 mg/kg ([1]; Staphylococcus aureus, MRSA, in Mus musculus, po, 24 h, read-out: Log reduction vs. untreated, Study 4, 12.5 mg/kg PO BID, sample 24 h post infection) of 1.9 and a log reduction at 25 mg/kg ([1]; Staphylococcus aureus, MRSA, in Mus musculus, po, 24 h, read-out: Log reduction vs. untreated, Study 4, 25 mg/kg PO BID, sample 24 h post infection) of 3.48. The log reduction at 5 mg/kg ([1]; Staphylococcus aureus, MRSA, in Mus musculus, po, 72 h, read-out: Log reduction vs. untreated, Study 5, 5 mg/kg PO QD, sample 72 h post infection) was 1.57, the log reduction at 15 mg/kg ([1]; Staphylococcus aureus, MRSA, in Mus musculus, po, 72 h, read-out: Log reduction vs. untreated, Study 5, 15 mg/kg PO QD, sample 72 h post infection) was 3.62 and the log reduction at 25 mg/kg ([1]; Staphylococcus aureus, MRSA, in Mus musculus, po, 72 h, read-out: Log reduction vs. untreated, Study 6, 25 mg/kg PO QD, sample 72 h post infection) was 3.65. The Active ([1]; Study 1, 50 mg/kg PO BID, sample 24 h post infection) was “Y”, the Active ([1]; Study 2, 15 mg/kg PO BID, sample 24 h post infection) was “Y” and the Active ([1]; Study 2, 50 mg/kg PO BID, sample 24 h post infection) was “Y”. For the same compound, the Active ([1]; Study 4, 6.25 mg/kg PO BID, sample 24 h post infection) was “N”, the Active ([1]; Study 4, 12.5 mg/kg PO BID, sample 24 h post infection) was “Y” and the Active ([1]; Study 4, 25 mg/kg PO BID, sample 24 h post infection) was “Y”. The Active ([1]; Study 5, 5 mg/kg PO QD, sample 72 h post infection) was “Y”, the Active ([1]; Study 5, 15 mg/kg PO QD, sample 72 h post infection) was “Y” and the Active ([1]; Study 6, 25 mg/kg PO QD, sample 72 h post infection) was “Y”. For the same compound, the MIC [2] was 0.5 µg/mL (≈ 0.869 µM), the MIC [3] was 1 µg/mL (≈ 1.74 µM) and the IC50 [4] was 1.74 to 1740 nM. For the same compound, the MIC [5] was over 64 µg/mL, the IC50 [6] was 1740 to 17400 nM and the Active [7, 17] was “Y”. The “Log reduction vs. untreated” value [7, 17] was −3.55, the Active [7, 18] was “N” and the “Log reduction vs. untreated” value [7, 18] was −1.16. The Active [7, 19] was “Y”, the “Log reduction vs. untreated” value [7, 19] was −3.32 and the Active [7, 20] was “Y”. The “Log reduction vs. untreated” value [7, 20] was −4.74, the Active [7, 21] was “N” and the “Log reduction vs. untreated” value [7, 21] was −0.13. For the same compound, the Active [7, 22] was “Y”, the “Log reduction vs. untreated” value [7, 22] was −3.92 and the Active [7, 23] was “Y”. For the same compound, the “Log reduction vs. untreated” value [7, 23] was −4.13, the Active [7, 24] was “Y” and the “Log reduction vs. untreated” value [7, 24] was −6.72. The Active [7, 25] was “Y”, the “Log reduction vs. untreated” value [7, 25] was −4.63 and the MIC [8] was over 64 µg/mL. For the same compound, the MIC [9] was over 64 µg/mL, the MIC [10] was over 64 µg/mL and the MIC [11] was over 64 µg/mL. For the same compound, the MIC ([12]; ATCC25923, read-out: MIC Sa26) was 1 µg/mL (≈ 1.74 µM), the MIC ([12]; ATCC25923, read-out: MIC Sa26 + 10% SH) was 1 µg/mL and the MIC ([12]; ATCC25923, read-out: MIC Sa26 + 50% SH) was 2 µg/mL. The MIC [13] was 1 µg/mL (≈ 1.74 µM), the Active [14] was “Y” and the “Log reduction vs. untreated” value [14] was −2.52. For the same compound, the MIC [15] was 1 µg/mL (≈ 1.74 µM) and the MIC [16] was 16 µg/mL (≈ 27.8 µM).

From patent US20160297830A1, “NOVEL COMPOUNDS USEFUL FOR THE TREATMENT OF BACTERIAL INFECTIOUS DISEASES” (GALAPAGOS NV, priority 2013, published 2016)
